Consider one substance from patent publication US20190167711A1, “METHODS FOR DIAGNOSIS AND TREATMENT OF ACUTE LYMPHOBLASTIC LEUKEMIA” (MOR RESEARCH APPLICATIONS LTD., priority 2014, published 2019).

Common to all, as to format: cell-based
The subject of one data set is NAMPT. Briefly: NAMPT expression by FACS in transfected Nalm-6 cells. Here is the method: One to two million NALM-6 transfected cells were collected 48 hours after transfection and fixed using 500 μl fixation and permeabilization buffer prior to immunofluorescent staining of intracellular proteins (e.g., BD Phosflow™ Fix Buffer I (BD Biosciences, San Jose, Calif., USA)) for 15 minutes. Then, pellets were washed twice using PBS and resuspended in 500 μl methanol. Samples were incubated for 2 hours in −20° C. For staining, pellets were washed with PBS and resuspended in 10 ml BD™ Cell Wash buffer (BD Biosciences, San Jose, Calif., USA) containing 2% FCS. The cells were stained for NAMPT using anti-NAMPT antibody (Ab) (1:1000) (R&D Systems®, MN, USA). […] The cells were sorted on flow cytometer (Calibur™ flow cytometer, Becton Dickinson, Le Pont-De-Claix, France) and analyzed using BD CellQuest™ Pro software.
Using open access software programs (TargetScan and miRanda), NAMPT was identified as a predicted target of miR-451. […] NAMPT expression was measured by FACS analysis using a specific NAMPT antibody.
In order to assess a possible association or correlation between miR-451 expression levels and sensitivity to in-vivo treatment of ALL with a NAMPT inhibitor, the effect of the NAMPT inhibitor FK866 was assessed in the presence of elevated levels or lowered levels of miR-451 in ALL xenograft mouse model. […] Tumors volume was measured daily.
Background: In flow cytometry, cells or beads pass a laser one at a time.

The next data set has as its system Nalm-6 cells. Kind of data set: Annexin V-FITC apoptosis assay in Nalm-6 cells. The settings on record: NALM-6 cells, transient expression. The source says:
Cells were stained with annexin V-fluorescein-5-isothiocyanate (FITC) conjugated antibody and propidium iodide (PI) using the Annexin V-FITC Apoptosis Detection Kit (ab14085, Abcam® Incorporated, Cambridge, Mass., USA) according to manufacturer's instructions (see, for example, https://www.abcam.com/ps/products/14/ab14085/documents/ab14085%20Annexin %20V%20FITC%20Apoptosis%20Detection%20Kit%20v4%20(website).pdf), and read on the flow cytometer. Annexin V Apoptosis Detection Kit is based on the observation that soon after initiating apoptosis, cells translocate the membrane phosphatidylserine (PS) from the inner face of the plasma membrane to the cell surface. Once on the cell surface, PS can be easily detected by staining with a fluorescent conjugate (e.g., FITC) of Annexin V, a protein that has a high affinity for PS. The one-step staining procedure takes only 10 minutes. When performing both Annexin V-FITC and PI staining, it is possible to differentiate apoptosis vs necrosis.
To measure the effect of NAD^+ depletion following FK866 treatment of Nalm-6 cells, apoptosis and viability were measured as described in Materials and Methods. Nalm-6 cells were treated for 48 hours with 1 nM FK866, and then apoptosis was measured using FACS.

The subject of the next data set is CXCL16. Briefly: Western blot of CXCL16 in transfected NALM-6 cells. As to conditions: NALM-6 transient. The source says:
Protein was extracted from NALM-6 cell line using Qproteome™ lysis buffer (Qiagen, Hilden, Germany). The membrane was then probed with one or more of the following antibodies: anti-disintegrin and metalloproteinase domain-containing protein 10 (ADAM10) (1:1000) (Abcam; Cambridge, UK) (see Example 9); anti-chemokine C-X-C motif 16 (CXCL16) (1:1000); anti-NAMPT (1:1000); and anti-GAPDH (1:5000) (Santa Crus Biotechnology, Santa Crus, Calif., USA) (see Examples 5 and 9). The secondary antibodies were goat anti-mouse and goat anti-rabbit (1:10,000) (Sigma®, Saint Louis, Mo., USA), for each antigen according to the manufacturer's instructions. […]
Intensity of the protein band was measured using an in-house program. […]
Possible miR-451 targets were evaluated using several open access software programs (e.g., Targetscan, PicTar, miRanda, miRDB). […] In the first screening, the suppression of ADAM10, CXCL16 and NAMPT protein level was analyzed in NALM-6 cells transiently expressing miR-451 mimic (SEQ ID NO: 2) and in cells transiently expressing scrambled-miR (universal sequence; negative control) by Western blot as described in Materials and Methods. […]
Background: In western blotting, separated proteins are transferred to a membrane and probed.

As for “miR-451 mimic: a dsmiR-451 designed to copy or mimic the functionality of mature endogenous miR-451 upon transfection (AAACCGUUACCAUUACUGAGUU; double-stranded mimic, further chemistry not given here; listed as Homo sapiens)”, the “NAMPT protein expression decreased by” value in the data set with NAMPT worked out at 46%. In addition, the “effect on apoptosis rate” value in the data set on Nalm-6 cells is on record as “No effect”. Moreover, the “CXCL16 protein level compared to scrambled-miR” value in the data set on CXCL16 is listed as “only NAMPT protein expression levels were reduced”.
